Source: publication PMC13316043, “Structural basis of NSD2 degradation via targeted recruitment of SCF-FBXO22” (Nature Communications, 2026)
Read-outs that look alike come from different tables or passages of the source.

Legend:
FBXO22 FIST domain = assay: Differential scanning fluorimetry (DSF); assay type: binding, human; details: vs DMSO
Protocol: A total of 9.5 µL of the master mix containing FBXO22 FIST WT or variants, SYPRO Orange Dye (Invitrogen), and DSF buffer (20 mM Tris 7.5, 150 mM NaCl, and 1 mM TCEP) were added to a 384-well qPCR plate (Genesee Scientific). 0.5 µL of the compound in DMSO was added to achieve a final concentration of 15 µM of the protein and 15× SYPRO Orange. The DSF assay plate was covered and incubated on an orbital shaker at room temperature for 30 min. The DSF assay was performed using the ViiA 7 Real-Time PCR System (Applied Biosystems). The plate was heated from 25°C to 95°C with a rate of 0.033°C/second. The raw fluorescence value was analyzed using the Protein Thermal Shift Software (Applied Biosystems, v1.4) to obtain the Tm. The graph was generated using GraphPad Prism (v 10.4.1).

His-tagged NSD2 PWWP1 = molecular target: T1, His-tagged NSD2 PWWP1 (Homo sapiens, UniProt O96028); assay: TR-FRET cooperativity (competition) assay: displacement of biotinylated NSD2 ligand UNC7096; assay type: binding
T1 sequence (O96028 211-350): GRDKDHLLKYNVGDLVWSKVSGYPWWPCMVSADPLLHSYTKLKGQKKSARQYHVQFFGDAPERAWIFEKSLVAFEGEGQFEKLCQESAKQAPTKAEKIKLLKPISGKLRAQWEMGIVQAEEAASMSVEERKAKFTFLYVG
Description: Because of the direct interactions observed between FBXO22 and NSD2, we hypothesized that some degree of cooperative binding could facilitate complex stabilization. Therefore, we developed a TR-FRET assay to monitor the interaction between his-tagged NSD2 and a biotinylated NSD2 ligand, UNC7096, that is missing the modality for FBXO22-recruitment (Supplementary Fig. 3D)[20]. Given the positive FRET signal observed when both NSD2 PWWP1 and UNC7096 are present, we used this setup to evaluate the displacement of UNC7096 by UNC10088 in the presence or absence of the FBXO22 FIST domain (Supplementary Fig. 3D). […] Importantly, this FBXO22-dependent enhancement of NSD2 antagonism by UNC10088 was absent when C326 was substituted for alanine (Supplementary Fig. 3F). Taken together, the SCF^FBXO22-NSD2 PWWP1 structure both confirms prior results and provides additional insight into the surfaces that contribute to a cooperative interaction between NSD2 and FBXO22 to promote potent NSD2 polyubiquitination and degradation.
The TR-FRET assay was adapted to assess cooperativity from the following workflows previously reported[39],[40]. Assays were performed in white, low-volume, flat-bottom, nonbinding 384-well microplates (Greiner, Catalog No. 784904) with a final assay volume of 10 μL per well. The assay buffer contained 20 mM Tris–HCl (pH 7.5) and 150mM NaCl, 0.05% Tween-20 (v/v), 2mM DTT, and 1% DMSO (v/v). LANCE Europium (Eu)-W8044 Streptavidin conjugate (2 nM) and LANCE Ultra ULight-anti6x-His labeled antibodies (10 nM) were used as donor and acceptor fluorophores associated with the tracer ligand and protein, respectively. Final assay concentrations of 63 nM His-tagged NSD2 PWWP1 and 31 nM of UNC7096 (a biotinylated version of the NSD2 ligand) as a tracer ligand were used for compound testing. UNC8732, UNC10088, and UNC10415667 were diluted in a 10-point, 3-fold serial dilution, and indicated compounds were pre-incubated with FBXO22 FIST for 30 min. A master mix of NSD2 PWWP1, UNC7096, and TR-FRET reagents was made prior to its addition to the compounds and/or FBXO22 FIST. The plates were sealed with metallic covers, mixed gently for 1 min, and incubated in the dark for 1 h. After 1 h, the plate was read on an EnVision 2103 plate reader with a 320 nm excitation filter and 615 nm/ 665 nm emission filters simultaneously with a dual mirror D400/D630 and a 100 μs delay. […] Raw TR-FRET signals were normalized to a high inhibition control (10 μM of UNC10088) and negative control (1% DMSO). The normalized TR-FRET signals were plotted against the compound concentrations. […] Ki values were calculated from the IC50s using the tight-binding model[41],[42]. The cooperativity factor (α) was calculated as the ratio of Ki (Binary)/ Ki (Ternary), with α > 1 indicating positive cooperativity between NSD2 PWWP1 and FBXO22 FIST based on its disruption of NSD2 binding to UNC7096.

BACH1 = assay: Western blot of BACH1 in HEK293T cells; assay type: cell-based, human; details: for BACH1 levels by immunoblot: 10 µM, 6 hrs
Protocol: HEK293T and U2OS were obtained from ATCC and cultured in high-glucose-containing Dulbecco’s Modified Eagle’s Medium (DMEM; Gibco; cat. #11995) supplemented with 10% fetal bovine serum (VWR) and 1% penicillin/streptomycin (Gibco). Cells were treated with either UNC10415667, UNC12149, UNC12567, hemin (Sigma; cat. #H9039), or DMSO control for the indicated times and analyzed by western blot using standard procedures. Briefly, cells were lysed on ice for 15 min in NETN lysis buffer (20 mM Tris pH 8.0, 100 mM NaCl, 0.5 mM EDTA, 0.5% NP40) supplemented with 10 µg/mL aprotinin, 10 µg/mL leupeptin, 10 µg/mL pepstatin A, 1 mM sodium orthovanadate, 1 mM sodium fluoride, and 1 mM AEBSF (4-[two aminoethyl] benzenesulfonyl fluoride). Cell lysates were centrifuged at 20,000×g in a benchtop microcentrifuge at 4 °C for 10 min. Protein concentration was determined by Bradford assay (Bio-Rad; cat. #5000006). Protein concentration was normalized using Laemmli buffer. Samples were heated for 5 min at 95°C in a dry water-bath. Samples were separated on TGX stain free gels (Bio-Rad) transferred to nitrocellulose membrane and blocked in 5% non-fat dry milk (Biorad; cat. #1706404) diluted in 1x TBS-T (137 mM NaCl, 2.7 mM KCl, 25 mM Tris pH 7.6, 1% Tween-20). Primary antibody incubations (Anti-NSD2 (Abcam; Cat# ab75359; Lot# 1093214-1; 1:1000 dilution), Anti-BACH1 (Fortis Life Sciences; Cat# A303-805A; Lot# 1; 1:1000 dilution), and Anti-GAPDH (Santa Cruz Biotechnology; Cat# sc-47724; Lot# C1023; 1:1000 dilution)) were performed overnight at 4 °C. Secondary antibodies (Peroxidase AffiniPure Goat Anti-Rabbit IgG (H + L) (Jackson Immuno; Cat# 111-035-003; 1:5000 dilution) and Peroxidase AffiniPure Goat Anti-Mouse IgG (H + L) (Jackson Immuno; Cat# 115-035-003; 1:5000 dilution)) were incubated for 1 h at room temperature. Blots were developed by chemiluminescence using Pierce ECL (Thermo Fisher Scientific; cat. #32106).

[1] = compound alone (buffer, no FBXO22 FIST), tracer UNC7096, read-out: IC50, competitive TR-FRET, binding to NSD2 PWWP1

Structure (SMILES) | change in melting temperature (Tm) of WT FBXO22 FIST (FBXO22 FIST domain) | IC50 (His-tagged NSD2 PWWP1; FBXO22 FIST C326A variant present, read-out: IC50, competitive TR-FRET, in the presence of C326A FIST) | IC50 (His-tagged NSD2 PWWP1; FBXO22 FIST present, reagents not preincubated, read-out: IC50, competitive TR-FRET, in the presence of FBXO22 FIST without preincubation) | IC50 (His-tagged NSD2 PWWP1; WT FBXO22 FIST present, compound pre-incubated with FIST 30 min, read-out: IC50, competitive TR-FRET, in the presence of FBXO22 FIST) | IC50 (His-tagged NSD2 PWWP1; [1]) | BACH1 levels by immunoblot (BACH1) | change in melting temperature (Tm) of FBXO22 FIST C326A (FBXO22 FIST domain; C326A variant) | BACH1 and NSD2 levels upon co-treatment with Hemin (BACH1; 10 µM UNC10415667 and 20 µM Hemin, 6 h)
O=C1COc2cc(C(=O)N(Cc3ccc(C(=O)Nc4ccc5c(c4)CCN(C(=O)CCCCC(O)S(=O)(=O)O)C5)cc3)C3CC3)ccc2N1 (centres unmarked) [UNC10088] | stabilize WT FBXO22 FIST | 0.227 ± 0.01 µM | 0.108 µM | 0.101 ± 0.008 µM | 0.248 ± 0.022 µM | remained constant | – | –
O=Cc1ccc(C(=O)N2CCc3cc(NC(=O)c4ccc(CN(C(=O)c5ccc6c(c5)OCC(=O)N6)C5CC5)cc4)ccc3C2)cc1 [UNC10415667] | significant increase | – | – | – | 0.159 ± 0.024 µM | unchanged | negligible shift | both BACH1 and NSD2 were degraded
